Laboratory results as given in publication PMC10681007, “Targeted Degradation of XIAP is Sufficient and Specific to Induce Apoptosis in MYCN-overexpressing High-risk Neuroblastoma” (Cancer Research Communications, 2023).
Where a name gives a salt, the structure may show the parent alone. Values belong to the compound of their own block, whether it stands above or below them.

Columns and labels:
Assay type in all cases: cell-based, Human
HS5 (bone marrow origin) = assay: RealTime-Glo MT cell viability assay, noncancerous normal cells; conditions: Homo sapiens
Protocol: (§1) Cell viability was measured in real time using RealTime-Glo MT Cell Viability Assay as according to manufacturer's instructions from Promega. Cells were seeded at 1 × 10^4 cells per well and treated with a range of doses of indicated antagonists, followed by continuous bioluminescence reading every 24 hours for 3 days using luminescent plate reader, Varioskan (SkanIT software). IC50 was determined using GraphPad Prism software.
(§2) To determine their efficacy in neuroblastoma, a panel of neuroblastoma cell lines including neuroblastoma patient-derived cell lines and noncancerous normal tissue-derived cell lines were treated with increasing doses of each antagonist (0–100 µmol/L), followed by real-time measurement of cell viability every 24 for 72 hours.
(§3) To evaluate this, noncancerous normal tissue-derived cell lines THLE3 and HS5 were utilized to evaluate toxicity and tolerability.

THLE3 (liver origin) = assay: as above; conditions: Homo sapiens
Protocol: as §1, §2, §3

[1] = test system: neuroblastoma cells across the panel of cell lines; assay: Cell viability, IC50 range across the panel; conditions: Homo sapiens, Neuroblastoma cell; range over cell lines, doses 0–100 µmol/L, viability every 24 for 72 hours; read-out: IC50 against neuroblastoma cells across the panel of cell lines
Protocol: as §1, with “([…]” for “(SkanIT”, “software. To determine their efficacy in neuroblastoma, a panel of neuroblastoma cell lines including neuroblastoma patient-derived cell lines and noncancerous normal tissue-derived cell lines were treated with increasing doses of each antagonist (0-100 μmol/L), followed by real-time measurement of cell viability every 24 for 72 hours. […] Supplementary Table S2; Fig. 2A). […] Fig. 2A).” for “software.”

THLE3 and HS5 = assay: Toxicity and tolerability in noncancerous normal tissue-derived cell lines; conditions: THLE3 and HS5 versus neuroblastoma cells
Protocol: as §1
To evaluate this, noncancerous normal tissue-derived cell lines THLE3 and HS5 were utilized to evaluate toxicity and tolerability. […] On the basis of their overall potency and specificity toward neuroblastoma cells over noncancerous normal cells, A4, B3, and BV6 were selected as the more efficacious antagonists to be studied further in subsequent experiments (Fig. 2A).

NLF = assay: RealTime-Glo MT cell viability assay; conditions: Homo sapiens
Protocol: as §1, §2

[2] = test system: NBL16-0118 patient-derived neuroblastoma cells; assay: RealTime-Glo MT cell viability assay; conditions: Homo sapiens, Neuroblastoma cell
Protocol: as §1, §2

[3] = test system: NBL01-1116 patient-derived neuroblastoma cells; assay: RealTime-Glo MT cell viability assay; conditions: Homo sapiens, Neuroblastoma cell
Protocol: as §1, §2

SK-N-AS [4] = assay: RealTime-Glo MT cell viability assay; conditions: Homo sapiens
Protocol: as §1, §2

BE(2)-C [5] = assay: RealTime-Glo MT cell viability assay; conditions: Homo sapiens
Protocol: as §1, §2

SK-N-SH = assay: RealTime-Glo MT cell viability assay; conditions: Homo sapiens
Protocol: as §1, §2

CHP212 = assay: RealTime-Glo MT cell viability assay; conditions: Homo sapiens, CHP-212
Protocol: as §1, §2

[6] = test system: NBL27-0218A patient-derived neuroblastoma cells; assay: RealTime-Glo MT cell viability assay; conditions: Homo sapiens, Neuroblastoma cell
Protocol: as §1, §2

KELLY [7] = assay: RealTime-Glo MT cell viability assay; conditions: Homo sapiens
Protocol: as §1, §2

NB1 = assay: RealTime-Glo MT cell viability assay; conditions: Homo sapiens
Protocol: as §1, §2

[8] = test system: NBL-07-0317 patient-derived neuroblastoma cells; assay: RealTime-Glo MT cell viability assay; conditions: Homo sapiens, Neuroblastoma cell
Protocol: as §1, §2

IMR-32 = assay: RealTime-Glo MT cell viability assay; conditions: Homo sapiens
Protocol: as §1, §2

BE(2)-C [9] = assay: Drug interactions assay (Chou-Talalay CI, DRI); conditions: 48 hours
Protocol: (§4) Drug interactions between XIAP-specific antagonist A4 and vincristine or topotecan were determined using the combination index (CI) by Chou and Talalay which was established on the basis of the mass-action law principle to derive the median-effect equation ([25]). […] Cell viability was measured and CI and dose reduction index (DRI) values were quantified using the CompuSyn software by Chou–Talalay. Areas under the dose–response curves were calculated using the trapezoidal method and compared using paired t test.
(§5) For treatment of high-risk neuroblastoma, current standard-of-care utilizes intensive multimodal therapy involving combinations of multiple cytotoxic agents. […] To analyze potential drug interactions, treatment of BE(2)-C and KELLY cells with A4 in combination with either vincristine or topotecan was examined. Using Chou–Talalay method, the drug interaction effect/type determined by the drug combination (CI) index is as follows: CI <1 (synergistic effect); CI = 1 (additive effect); CI >1 (antagonistic effect).
(§6) CI was generated using CompuSyn software by Chou–Talalay ([25]). CI60–90 represents the average CI at 60%–90% cell death. CI <1 denotes synergistic effect; CI = 1 denotes addictive effect and CI >1 denotes antagonistic effect. […] DRI was generated using CompuSyn software by Chou–Talalay. DRI60–90 represents the average DRI at 60%–90% cell death. DRI <1 denotes unfavorable dose reduction and DRI >1 denotes favorable dose reduction.

KELLY [10] = assay: Drug interactions assay (Chou-Talalay CI, DRI); conditions: 48 hours
Protocol: as §4, §5, §6

SK-N-AS [11] = assay: Drug interactions assay (Chou-Talalay); conditions: in combination with A4
Protocol: as §4
DRI <1 denotes unfavorable dose reduction and DRI >1 denotes favorable dose reduction.

IC50 [1]: 20 to 60 µM | IC50 ([2]; NBL16-0118, 24 hours): 34 µM | IC50 ([2]; NBL16-0118, 48 hours): 27.5 µM | IC50 ([2]; NBL16-0118, 72 hours): 22.5 µM | IC50 ([3]; NBL01-1116, 24 hours): 42 µM | IC50 ([3]; NBL01-1116, 48 hours): 36.4 µM | IC50 ([3]; NBL01-1116, 72 hours): 36 µM | IC50 (SK-N-AS [4]; 24 hours): 34 µM | IC50 (SK-N-AS [4]; 48 hours): 22.5 µM | IC50 (SK-N-AS [4]; 72 hours): 15.7 µM | IC50 (SK-N-SH; 24 hours): 55.4 µM | IC50 (SK-N-SH; 48 hours): 44 µM | IC50 (SK-N-SH; 72 hours): 33 µM | IC50 ([6]; 24 hours): 39 µM | IC50 ([6]; 48 hours): 32.5 µM | IC50 ([6]; 72 hours): 28.5 µM | IC50 ([8]; NBL-07-0317, 24 hours): 33.6 µM | IC50 ([8]; NBL-07-0317, 48 hours): 31.8 µM | IC50 ([8]; NBL-07-0317, 72 hours): 30 µM
Compound: CN[C@@H](C)C(=O)N[C@H](C(=O)N1CCC[C@H]1c1nc(C(=O)c2ccc(F)cc2)cs1)C1CCCCC1 [LCL161]
IC50 (HS5 (bone marrow origin); HS5, 24 hours): 30 µM | IC50 (HS5 (bone marrow origin); HS5, 48 hours): 18 µM | IC50 (HS5 (bone marrow origin); HS5, 72 hours): 15.5 µM | IC50 (THLE3 (liver origin); THLE3, 24 hours): > 60 µM | IC50 (THLE3 (liver origin); THLE3, 48 hours): 24 µM | IC50 (THLE3 (liver origin); THLE3, 72 hours): 14.5 µM | toxicity to noncancerous cells (THLE3 and HS5): more toxic toward noncancerous cells than neuroblastoma cells | IC50 (NLF; 24 hours): 32.8 µM | IC50 (NLF; 48 hours): 30.2 µM | IC50 (NLF; 72 hours): 28.5 µM | IC50 (BE(2)-C [5]; 24 hours): > 60 µM | IC50 (BE(2)-C [5]; 48 hours): 42.5 µM | IC50 (BE(2)-C [5]; 72 hours): 32.5 µM | IC50 (CHP212; CHP212, 24 hours): 42 µM | IC50 (CHP212; CHP212, 48 hours): 33 µM | IC50 (CHP212; CHP212, 72 hours): 31.2 µM | IC50 (KELLY [7]; 24 hours): 48.2 µM | IC50 (KELLY [7]; 48 hours): 27.6 µM | IC50 (KELLY [7]; 72 hours): 21.2 µM | IC50 (NB1; NB1, 24 hours): > 60 µM | IC50 (NB1; NB1, 48 hours): 46.5 µM | IC50 (NB1; NB1, 72 hours): 27.4 µM | IC50 (IMR-32; IMR-32, 24 hours): > 60 µM | IC50 (IMR-32; IMR-32, 48 hours): 30 µM | IC50 (IMR-32; IMR-32, 72 hours): 19 µM

Compound: CC[C@@]1(O)C(=O)OCc2c1cc1n(c2=O)Cc2cc3c(CN(C)C)c(O)ccc3nc2-1 [Topotecan, Topotecan hydrochloride]
AUC of dose–response curve (BE(2)-C [9]; topotecan dose axis): 164.6±8.6 nM* luminescence | AUC of dose–response curve (KELLY [10]; topotecan dose axis): 352.1±28.9 nM* luminescence

Compound: CC[C@]1(O)C[C@H]2CN(CCc3c([nH]c4ccccc34)[C@@](C(=O)OC)(c3cc4c(cc3OC)N(C=O)[C@H]3[C@@](O)(C(=O)OC)[C@H](OC(C)=O)[C@]5(CC)C=CCN6CC[C@]43[C@@H]65)C2)C1 [Vincristine, Vincristine sulfate]
AUC of dose–response curve (BE(2)-C [9]; vincristine dose axis): 9.8±0.2 pM* luminescence | AUC of dose–response curve (KELLY [10]; vincristine dose axis): 37.5±3.9 pM* luminescence | drug interaction with A4 (SK-N-AS [11]): only additive effect
